A short description of series [1]: Acute toxicity in CDF-1 female mice. The series is classed as in vivo. The following applies: mouse, in vivo. The procedure:
Acute toxicity of Compounds of Examples
CDF-1 female mice (5-week old: a group of consisting of 5 mice) were given once intraperitoneally 0.2 ml of a physiological saline solution of a compound of Example.

The test system of series [2] is breast cancer cells MM46. Kind of series: Action against breast cancer cells MM46 in C3H mice. The series is classed as in vivo, murine (C3H mice). The following applies: for Life-span prolongation ratio (T/C %): 0.20 mg/mouse once a day for 4 consecutive days, only related to mice which died; for No. of survivors/No. of mice tested: 0.20 mg/mouse once a day for 4 days, on the 60th day. As for the experimental part:
Action of the compounds obtained in Examples against breast cancer cells MM46
C3H mice (a group consisting of 5 mice) were inoculated intraperitoneally with 1×10^4 MM46 cells per mouse, and given 0.20 mg/mouse of compounds of Examples dissolved in physiological saline once a day for 4 consecutive days starting from the second day after the inoculation. Shown in Table 3 are the life-span prolongation ratio against the control group without treatment and the number of surviving mice on the 60th day after starting the test.

Series [3] relates to human colon adenocarcinoma (colon 205 cells). Kind of series: Inhibition of multiplication of human colon adenocarcinoma (colon 205 cells), MTT assay. The class given is cell-based. The conditions noted are these: 72 hours. The procedure: (§1) The effect (IC50) of the compounds obtained by Examples in inhibiting multiplication of human nasopharynx cancer (KB cells) and human colon adenocarcinoma (colon 205 cells) Each well of a 96-well microtiter plate was inoculated with 0.1 ml of human nasopharynx cancer (KB cells) (1×10^4 /ml) or human colon adenocarcinoma (colon 205 cells) (2×10^4 /ml), which was then subjected to cultivation by allowing to stand at 37° C. for 24 hours in 5% CO2. To the culture was added a 10% MEM solution (manufactured by Nissui Seiyaku or RPMI-1640), and cultivation was continued at 37° C. for 72 hours in 5% CO2. Then, the culture solution was removed with a micro-pipette. […] Incubation was conducted at 37° C for 4 hours, to which was then added 0.1 ml of a 10% SDS (Wako Pure Chemical Industries, Ltd.), and the incubation was continued at 37° C. for 24 hours.
On the technique in general: Tetrazolium assays rely on reduction of a dye to a coloured formazan, in cell work by metabolically active cells.

Series [4] relates to Sarcoma 180 cells. Briefly: Antitumor effect against Sarcoma 180 cells in ICR mice. The class given is in vivo, murine (ICR mice). The conditions noted are these: for Life-span prolongation ratio (T/C %): 0.33 mg/mouse i.p. 1 hour, 1 day and 2 days after inoculation, only related to mice which died; for Number of survivors/number of mice tested: 0.33 mg/mouse i.p. three times, on the 60th day. The procedure: Antitumor effect of compounds of Examples against Sarcoma 180 cells
ICR mice (a group consisting of 5 mice) were inoculated intraperitoneally with 1×10^5 Sarcoma 180 cells per mouse. Then, 0.33 mg/mouse of a compound dissolved in physiological saline was intraperitoneally administered three times, i.e. 1 hour, 1 day and 2 days after the inoculation. Shown in Table 4 are the life-span prolongation ratio against the control group without treatment and the number of surviving mice on the 60th day after the initiation of the test.

Series [5] concerns human nasopharynx cancer (KB cells). Kind of series: Inhibition of multiplication of human nasopharynx cancer (KB cells), MTT assay. The conditions noted are these: 72 hours. The class given is cell-based. As for the experimental part:
as §1

Series [6] relates to murine colon cancer (colon 26). Briefly: Action against murine colon cancer (colon 26) in Balb/C mice. The class given is in vivo. The following applies: 0.3 mg/mouse i.p., eight times; tumor weight after 14 days, against untreated control. The procedure: Action of the compound in Example against murine colon cancer (colon 26)
Balb/C mice (a group consisting of five mice) were inoculated subcutaneously at dorsolateral area with 2×10^5 murine colon cancer (colon 26l) cells, and then given intraperitoneally 0.3 mg/mouse of the compound dissolved in physiological saline, eight times, i.e. 1 day, 2 days, 5 days, 6 days, 8 days, 9 days, 12 days and 13 days after the inoculation. After 14 days, the tumor tissue was extirpated and the tumor weight was weighed. Shown in Table 2 is tumor growth inhibition ratio against the untreated control.

Values after ≈ are worked out from the molar mass of the structure shown. Some results are limits rather than exact numbers.

Results on four compounds are retold here after patent publication US5103007A, “Lipids” (Takeda Chemical Industries, Ltd., priority 1988, dated 1992).

Take `CCCCCCCCCCCCCCCCCCOCC(C[S+]([O-])CCOCC[n+]1ccsc1)Oc1ncccn1` (stereo not drawn) [Ex. 1, 2-[2-[3-octadecyloxy-2-(pyrimidin-2-yloxy)propylsulfinyl]ethoxy]ethylthiazolium chloride]: the “No. of dead mice/No. of mice tested” value in series [1] was 0/5. Besides, in series [2], the “Life-span prolongation ratio (T/C %)” value amounted to 147% and the “No. of survivors/No. of mice tested” value is listed as 4/5. Moreover, in series [3], the half-inhibitory concentration (IC50) is 1.25 µg/mL. Besides, in series [4], the “Life-span prolongation ratio (T/C %)” value was 235% and the “Number of survivors/number of mice tested” value is recorded as 2/5. In series [5], this compound yielded a 50% inhibitory concentration (IC50) of 1.25 µg/mL. In series [6], the “Growth inhibition ratio (1-T/C %)” value is 48%.
For the compound `CCCCCCCCCCCCCCCCCCOCC(C[S+]([O-])CCOCC[n+]1ccccc1)Oc1ncccn1.[Cl-]` (stereo not drawn) [Ex. 2, N-[2-[2-[3-octadecyloxy-2-(pyrimidin-2-yloxy)propylsulfinyl]ethoxy]ethyl]pyridinium chloride], the “No. of dead mice/No. of mice tested” value in series [1] was 0/5. Further, in series [2], the “Life-span prolongation ratio (T/C %)” value was determined as 150% and the “No. of survivors/No. of mice tested” value was 2/5. The compound also gave an IC50 in series [3] of 0.16 µg/mL. Also, the IC50 in series [5] worked out at 0.32 µg/mL.
Consider `CCCCCCCCCCCCCCCCCCOCC(CSCCOCC[n+]1ccn(CCCCCC(=O)[O-])c1)Oc1ncccn1` (stereo not drawn) [Ex. 9, 6-[3-[2-[2-[3-octadecyloxy-2-(pyrimidin-2-yloxy)propylthio]ethoxy]ethyl]imidazolio-1-yl]hexanoate], for which the “No. of dead mice/No. of mice tested” value in series [1] is 0/5. The IC50 in series [3] came out at 0.63 µg/mL (≈ 0.912 µM); in series [5] it was 0.32 µg/mL (≈ 0.463 µM).
For `CCCCCCCCCCCCCCCCCCOCC(C[S+]([O-])CCOCC[N+](C)(C)C)Oc1ncccn1.[Cl-]` (stereo not drawn) [Ex. 24, N-[2-[2-[3-octadecyloxy-2-(pyrimidin-2-yloxy)propylsulfinyl]ethoxy]ethyl]-N,N,N-trimethylammonium chloride], in series [1], the “No. of dead mice/No. of mice tested” value was 0/5. Moreover, the concentration for half-maximal inhibition (IC50) was 0.63 µg/mL in series [3] and under 0.16 µg/mL in series [5]. Further, in series [4], the “Life-span prolongation ratio (T/C %)” value is reported as 195%. Besides, the “Number of survivors/number of mice tested” value in series [4] is on record as 1/5.

Usually IC50 stands for the concentration that inhibits the measured activity by half. Lower therefore signals higher potency.
